Experimental data published in ChEMBL document CHEMBL1201862, “PubChem BioAssay data set” (2004).
Calls of active or inactive are those of the source.

How the values were obtained:
[1] = molecular target: T1, Tyrosine-protein phosphatase non-receptor type 22 (Homo sapiens, UniProt Q9Y2R2); assay: LYP1 Fluorescent Assay using OMFP substrate for In Vitro dose response studies. [Related pubchem assays (depositor defined):AID1779, AID1784, AID435024]
T1 sequence (Q9Y2R2 whole entry): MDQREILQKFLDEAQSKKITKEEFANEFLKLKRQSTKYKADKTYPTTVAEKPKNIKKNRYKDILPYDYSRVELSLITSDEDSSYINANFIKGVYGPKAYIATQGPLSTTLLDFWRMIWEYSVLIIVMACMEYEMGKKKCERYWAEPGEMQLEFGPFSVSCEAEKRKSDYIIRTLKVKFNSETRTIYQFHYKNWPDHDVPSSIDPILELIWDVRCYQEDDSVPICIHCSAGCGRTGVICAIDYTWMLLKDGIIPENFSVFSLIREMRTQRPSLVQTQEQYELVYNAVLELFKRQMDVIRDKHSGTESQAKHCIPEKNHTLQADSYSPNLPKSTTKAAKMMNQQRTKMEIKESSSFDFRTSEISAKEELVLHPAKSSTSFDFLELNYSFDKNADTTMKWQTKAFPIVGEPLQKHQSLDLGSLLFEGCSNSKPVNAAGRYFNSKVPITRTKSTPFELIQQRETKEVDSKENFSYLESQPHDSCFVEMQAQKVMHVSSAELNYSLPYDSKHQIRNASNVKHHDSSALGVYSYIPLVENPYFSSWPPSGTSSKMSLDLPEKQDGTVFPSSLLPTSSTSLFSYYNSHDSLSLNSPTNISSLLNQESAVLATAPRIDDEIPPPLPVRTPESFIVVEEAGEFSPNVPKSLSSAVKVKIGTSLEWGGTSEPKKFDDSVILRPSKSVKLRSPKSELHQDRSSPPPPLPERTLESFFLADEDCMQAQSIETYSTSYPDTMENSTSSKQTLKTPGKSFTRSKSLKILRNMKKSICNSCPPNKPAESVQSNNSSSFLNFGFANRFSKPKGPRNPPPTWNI

[2] = cells
[3] = molecular target: 72 kDa type IV collagenase (Homo sapiens, UniProt P08253); assay: Dose Response validation of uHTS RPN11 inhibitor hits using a MMP-2 Fluorescence assay.; type: functional
[4] = molecular target: Serine/threonine-protein phosphatase PP1-alpha catalytic subunit (Homo sapiens, UniProt P62136); assay: PP1 phosphatase inhibitors, dose response, biochemical, fluorescence (AID 2403);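 further: phosphatase turnover of OMFP into fluorescent 3-O-methylfluorescein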
[5] = molecular target: T1, Tyrosine-protein phosphatase non-receptor type 22; type: functional
[6] = molecular target: T2, Tyrosine-protein phosphatase non-receptor type 7 (Homo sapiens, UniProt P35236); type: functional
T2 sequence (P35236 whole entry): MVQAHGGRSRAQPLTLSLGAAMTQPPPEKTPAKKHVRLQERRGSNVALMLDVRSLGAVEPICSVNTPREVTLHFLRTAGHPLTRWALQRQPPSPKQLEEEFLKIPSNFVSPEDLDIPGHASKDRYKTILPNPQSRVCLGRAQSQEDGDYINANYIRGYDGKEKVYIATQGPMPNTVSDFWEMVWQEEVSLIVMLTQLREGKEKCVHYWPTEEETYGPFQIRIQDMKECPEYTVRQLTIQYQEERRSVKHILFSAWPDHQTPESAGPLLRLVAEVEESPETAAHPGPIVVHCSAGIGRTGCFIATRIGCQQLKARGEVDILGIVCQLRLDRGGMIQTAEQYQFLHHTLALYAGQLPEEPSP

[7] = molecular target: T1, Tyrosine-protein phosphatase non-receptor type 22; assay: inhibitors of LYP phosphatase, biochemical, fluorescence intensity, uHTS (AID 1779)
[8] = molecular target: 26S proteasome non-ATPase regulatory subunit 14 (Homo sapiens, UniProt O00487); assay: inhibition of proteasome subunit RPN11 – biochemical, fluorescence polarization, uHTS hits, confirmation (AID 602368); type: functional
[9] = molecular target: Guanyl-specific ribonuclease T1 (Aspergillus oryzae (strain ATCC 42149 / RIB 40), UniProt P00651); assay: RNase T1 inhibitors, dose response, counter-screen for TPT1 inhibitor project, biochemical, fluorescence polarization, 1536-well (AID 2167)
[10] = molecular target: Likely tRNA 2'-phosphotransferase (Candida albicans (strain SC5314 / ATCC MYA-2876) (Yeast), UniProt Q5A7N4); assay: TPT1 tRNA phosphotransferase inhibitors, dose response, biochemical, fluorescence polarization (AID 2160)
[11] = molecular target: T1, Tyrosine-protein phosphatase non-receptor type 22; type: functional; remark: listed apart in the source
[12] = molecular target: Photoreceptor-specific nuclear receptor (Homo sapiens, UniProt Q9Y5X4); assay: NR2E3 inverse agonists, dose response, biochemical, TR-FRET (AID 463256); type: functional
[13] = molecular target: Peroxisome proliferator-activated receptor gamma/Nuclear receptor corepressor 2 (Homo sapiens, UniProt P37231+Q9Y618); assay: Counterscreen for NR2E3 inverse agonists: TR-FRET-based biochemical high throughput dose response assay to identify inverse agonists of the interaction between peroxisome proliferator-activated receptor gamma (PPARg) and nuclear receptor co-repressor 2 (NCOR2).; type: functional
[14] = molecular target: Prothrombin (Bos taurus, UniProt P00735); assay: thrombin inhibition, dose response, biochemical, fluorescence polarization, uHTS hits (AID 602369); type: functional
[15] = molecular target: Major prion protein (Homo sapiens, UniProt P04156); type: functional, cell-based
[16] = molecular target: T2, Tyrosine-protein phosphatase non-receptor type 7; assay: HTS HePTP Fluorescent Assay using OMFP substrate for In Vitro dose response studies. [Related pubchem assays (depositor defined):AID1059, AID1077, AID1784, AID2068, AID2085, AID435032, AID521]; type: functional
[17] = molecular target: T3, Serine/threonine-protein phosphatase (Homo sapiens, UniProt Q9BPW0); assay: Counterscreen for inhibitors of PP1: fluorescence-based biochemical high throughput dose response assay to identify inhibitors of Protein Phosphatase 5 (PP5). [Related pubchem assays: 2034 (Summary (PP5 inhibitors)), 1987 (PP5 inhibitors in singlate), 2235 (PP1 inhibitors in singlate)]
T3 sequence (Q9BPW0 whole entry): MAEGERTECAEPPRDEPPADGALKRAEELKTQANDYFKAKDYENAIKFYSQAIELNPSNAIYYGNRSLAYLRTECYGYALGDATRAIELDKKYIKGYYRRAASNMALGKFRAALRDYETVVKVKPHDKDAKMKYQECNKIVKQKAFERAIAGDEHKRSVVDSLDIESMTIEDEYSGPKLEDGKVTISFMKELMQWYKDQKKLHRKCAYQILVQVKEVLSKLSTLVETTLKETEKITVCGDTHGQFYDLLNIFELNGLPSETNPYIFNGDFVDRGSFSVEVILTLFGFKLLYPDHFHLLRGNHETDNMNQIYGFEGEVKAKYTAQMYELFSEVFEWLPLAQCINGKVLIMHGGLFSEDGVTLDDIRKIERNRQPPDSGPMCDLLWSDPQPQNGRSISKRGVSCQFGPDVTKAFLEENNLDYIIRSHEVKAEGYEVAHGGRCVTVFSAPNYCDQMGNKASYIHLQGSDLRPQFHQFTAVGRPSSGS

[18] = molecular target: T4, Cannabinoid receptor 2 (Homo sapiens, UniProt P34972); assay: SAR analysis of agonists of the Cannabinoid Receptor 2 using an Image-Based Assay - Set 2. [Related pubchem assays (depositor defined):AID1961, AID1965]; type: functional
[19] = molecular target: Cannabinoid receptor 1 (Homo sapiens, UniProt P21554); assay: SAR analysis of antagonists of the Cannabinoid Receptor 1 using an Image-Based Assay. [Related pubchem assays (depositor defined):AID1961, AID1965]; type: functional
[20] = molecular target: T5, G-protein coupled receptor 55 (Homo sapiens, UniProt Q9Y2T6); assay: GPR55 agonists via beta-arrestin recruitment, primary screen, imaging, U2OS cells, beta-arrestin-GFP redistribution (AID 1961); type: functional
[21] = molecular target: T5, G-protein coupled receptor 55; assay: SAR analysis of selective Agonists of GPR55 using an Image-Based Assay. [Related pubchem assays (depositor defined):AID1961, AID1965]; type: functional
[22] = molecular target: T4, Cannabinoid receptor 2; assay: SAR analysis of antagonists of the Cannabinoid Receptor 2 using an Image-Based Assay - Set 2. [Related pubchem assays (depositor defined):AID1961, AID1965]; type: functional

In the case of `COc1ccc(Cl)cc1C(=O)Nc1cccc(-c2ccc3nncn3n2)c1`, the IC50 [1] is reported as > 99 µM (inactive), the IC50 [2] is reported as > 138 µM (inactive) and the IC50 [3] is reported as 8.37 µM (active). For the same compound, the IC50 [4] was 6.56 µM (active), the IC50 [5] was 16 µM (active) and the IC50 [6] was 48.7 µM (active). The IC50 [7] was 50.8 µM (active), the IC50 [8] was 12 µM (active) and the IC50 [9] was 7.18 µM (active). The IC50 [10] was 5.93 µM (active), the IC50 [11] was 38.5 µM (active) and the IC50 [12] was 2.86 µM (active). For the same compound, the IC50 [13] was 5.06 µM (active), the IC50 [14] was 30.2 µM (active) and the IC50 [15] was 9.03 µM (active). For the same compound, the IC50 [16] was 37.9 µM (active) and the IC50 [17] was > 67 µM (not active).

With `CC(C)Oc1ccc(S(=O)(=O)N2CCOCC2)cc1NC(=O)c1ccc(N2CCCC2=O)cc1` the EC50 [18] was > 32 µM (inactive), the IC50 [19] was > 32 µM (inactive) and the EC50 [20] was 0.969 µM (active). The EC50 [21] was 0.88 µM (active) and the IC50 [22] was > 32 µM (inactive).
